Laboratory results reported in PMC7359024, “Synthesis, Structure–Activity Relationship, and Mechanistic Studies of Aminoquinazolinones Displaying Antimycobacterial Activity” (ACS Infectious Diseases, 2020).
Converted amounts (≈) assume the structure as drawn. Like-named read-outs stand apart in the source and are kept apart here.

Experiments:
[1] = format: in vitro ADME; conditions: for Metabolic Stability H (% Rem.): human liver microsomes; for Metabolic Stability M (% Rem.): mouse liver microsomes; for Metabolic Stability R (% Rem.): rat liver microsomes
Protocol: 3.2. Microsomal stability
The metabolic stability assay was performed in duplicate in a 96-well micro titre plate. The test compounds (0.1 μM) were incubated individually in mouse, rat and pooled human liver microsomes ((final protein concentration of 0.4 mg/mL; XenoTech, Lenexa, KS ), suspended in 0.1M phosphate buffer (pH 7.4) at 37 °C for predetermined time points, in the presence and absence of the cofactor NADPH (1 mM). Reactions were quenched by adding ice cold acetonitrile containing internal standard (carbamazepine, 0.0236 µg/mL). T he samples were centrifuged and test compound in the supernatant were analysed by means of LC -MS/MS (Agilent Rapid Resolution HPLC, AB SCIEX 4500 MS ). The relative loss of parent compound over time was monitored and plots (concentration vs. time) were prepared per compound to determine the first order rate constant for compound depletion. This was in turn used to calculate half-life, in vitro intrinsic clearance and in vivo hepatic extraction ratio. Metabolite searches were not conducted during the metabolic stability assay. 5

[2] = test system: Mtb H37Rv strain; assay: MIC90 determination in GASTE-Fe media (broth microdilution); format: cell-based, Mycobacterium tuberculosis; conditions: Mtb H37Rv, replicating conditions, GASTE-Fe media, read 14 days after incubation, read-out: MIC90 GASTE-Fe
[3] = in vitro; conditions: Chinese hamster
[4] = physchem; format: physicochemical; conditions: 25 °C, pH 7.4, aqueous buffer, kinetic solubility, pH 7.4, HPLC method
Protocol: The kinetic solubility assay was performed using a miniaturised shake flask method. 10 mM stock solutions of each of the test compounds were used to prepare calibration standards (10-220μM) in DMSO. The same 10mM stock solutions were accurately dispensed in duplicate into 96-well plates and the DMSO dried down (MiVac GeneVac, 90 min, 37 °C). Thereafter, the samples were reconstituted (200 µM) in phosphate buffered saline (pH 7.4) and shaken (20 hours, 25 °C). The solutions were filtered and analysed by means of HPLC -DAD (Agilent 1200 Rapid Resolution HPLC with a diode array detector). […]

[5] = in vivo; design: species or system C57/BL6 mice; conditions: for bioavailability: oral 20 mg/kg vs iv 5 mg/kg
Protocol: In vivo PK studies were performed on compound 1 (sulfone) and compound 2 (sulfoxide) (Table 3). All studies and procedures were conducted with prior approval of the animal ethics committee of the University of Cape Town (approval numbers 013/028 and 014/028) in accordance with the South African National Standard (SANS 10386:008) for the Care and Use of Animals for Scientific Purposes and guidelines from the Department of Health. […]
the South African National Standard (SANS 10386:008) for the Care and Use of Animals for Scientific Purposes,6 and guidelines from the Department of Health.7
The pharmacokinetic parameters of the compounds were determined by dosing the compound to C57/BL6 mice through oral (n = 3 mice) and intravenous (n = 3 mice) administration. For oral administration, the compounds were formulated in 0.5% hydroxypropylmethyl cellulose (HPMC) in Phosphate buffered saline pH 7.4. The intravenous doses were administered in dimethylacetamide-polyethylene glycol 400-polypropylene glycol (DMA-PEG400-PPG) (10:30:60) Blood samples were collected via tail bleeding at predetermined time points and stored at -80°C until liquid chromatography-tandem mass spectrometry (LC-MS/MS) analysis.
The whole-blood concentrations of the compounds were determined using a quantitative LC- […]
method, using ice -cold acetonitrile.
After centrifugation, the supernatant was transferred to 96 -well plates for analysis. LC -MS/MS was carried out on an AB Sciex 400 0 QTrap coupled to an Agilent 1200 high -performance liquid chromatograph (HPLC). Separation was achieved on a Kinetex PFP column column, using 0.1% formic acid in water as the aqueous mobile phase and 0.1% formic acid in acetonitrile as the organic mobile phase. The analytical limit of quantitation (LOQ) was 1 ng/ml. LC-MS/MS method accuracy and precision were 15% (nom) for the standards and […]
Concentration-versus-time data were used to derive the PK parameters using noncompartmental analys is on PK Solutions 2.0 (Summit Research Services, Montrose, CO,

[6] = Mycobacterium tuberculosis, H37RV, 336 h

In the case of `Nc1nc2ccc(-c3cccc(C(=O)NCCN4CCOCC4)c3)cc2c(=O)n1-c1ccc(C(F)(F)F)cc1` [compound 15, 3-(2-amino-4-oxo-3-(4-(trifluoromethyl)phenyl)-3,4-dihydroquinazolin-6-yl)-N-(2-morpholinoethyl)benzamide], the “Metabolic Stability H (% Rem.)” value [1] is reported as 51 % Rem, the “Metabolic Stability M (% Rem.)” value [1] is reported as 59 % Rem and the “Metabolic Stability R (% Rem.)” value [1] is reported as 62 % Rem. For the same compound, the MIC90 [2, 6] was 1.45 µM (≈ 0.779 µg/mL), the IC50 [3] was 8.77 µM and the solubility [4] was less than 5 µM.
For `Nc1nc2ccc(-c3cccc(C(=O)O)c3)cc2c(=O)n1-c1ccc(C(F)(F)F)cc1` [compound 20], the “Metabolic Stability H (% Rem.)” value [1] was 99 % Rem, the “Metabolic Stability M (% Rem.)” value [1] was 98 % Rem and the “Metabolic Stability R (% Rem.)” value [1] was 97 % Rem. The MIC90 [2, 6] was 112 µM (≈ 47.6 µg/mL), the IC50 [3] was greater than 100 µM and the solubility [4] was 29 µM (≈ 12.3 µg/mL).
In the case of `Nc1nc2ccc(-c3cccc(C(=O)N4CCOCC4)c3)cc2c(=O)n1-c1ccc(C(F)(F)F)cc1` [compound 16, 2-Amino-6-(3-(morpholine-4-carbonyl)phenyl)-3-(4-(trifluoromethyl)phenyl)quinazolin-4(3H)-one], the “Metabolic Stability H (% Rem.)” value [1] is reported as 71 % Rem, the “Metabolic Stability M (% Rem.)” value [1] is reported as 78 % Rem and the “Metabolic Stability R (% Rem.)” value [1] is reported as 77 % Rem. It also gave an MIC90 [2, 6] of 4.93 µM (≈ 2.44 µg/mL), an IC50 [3] greater than 50 µM and a solubility [4] of 56 µM (≈ 27.7 µg/mL).
With `CNc1nc2ccc(-c3cccc([S+](C)[O-])c3)cc2c(=O)n1-c1ccc(C(F)(F)F)cc1` (stereo not shown) [compound 40, 2-(Methylamino)-6-(3-(methylsulfinyl)phenyl)-3-(4-(trifluoromethyl)phenyl)quinazolin-4(3H)-one] the “Metabolic Stability H (% Rem.)” value [1] was 89 % Rem, the “Metabolic Stability M (% Rem.)” value [1] was 87 % Rem and the “Metabolic Stability R (% Rem.)” value [1] was 90 % Rem. For the same compound, the MIC90 [2, 6] was 1.4 µM (≈ 0.64 µg/mL), the IC50 [3] was greater than 50 µM and the solubility [4] was 64 µM (≈ 29.3 µg/mL).
For `CS(=O)(=O)c1cccc(-c2ccc3c(=O)n(-c4ccc(C(F)(F)F)cc4)c(N)nc3c2)c1` [compound 30], the “Metabolic Stability H (% Rem.)” value [1] was 99/99/99 % Rem, the “Metabolic Stability M (% Rem.)” value [1] was 99/99/99 % Rem and the “Metabolic Stability R (% Rem.)” value [1] was 99/99/99 % Rem. The MIC90 [2, 6] was 1.39 µM (≈ 0.639 µg/mL), the IC50 [3] was greater than 50 µM and the solubility [4] was less than 5 µM.
With `CNc1nc2ccc(-c3cccc(S(C)(=O)=O)c3)cc2c(=O)n1-c1ccc(C(F)(F)F)cc1` [compound 41, 2-(Methylamino)-6-(3-(methylsulfonyl)phenyl)-3-(4-(trifluoromethyl)phenyl)quinazolin-4(3H)-one] the “Metabolic Stability H (% Rem.)” value [1] was 98 % Rem, the “Metabolic Stability M (% Rem.)” value [1] was 100 % Rem and the “Metabolic Stability R (% Rem.)” value [1] was 100 % Rem. The MIC90 [2] was greater than 125 µM, the MIC90 [2, 6] was greater than 125 µM and the IC50 [3] was greater than 50 µM. The solubility [4] was less than 5 µM.
For `CS(=O)(=O)c1cccc(-c2ccc3nc(N)n(-c4ccc(C(F)(F)F)cc4)c(=O)c3c2)c1` [compound 1, 2-Amino-6-(3-(methylsulfonyl)phenyl)-3-(4-(trifluoromethyl)phenyl)quinazolin-4(3H)-one], the “AUC0–∞” value ([5]; 1 as metabolite of 2, mouse, oral 20 mg/kg of compound 2) was 18430 min·μmol·L^–1, the Vd ([5]; C57/BL6, in vivo, mouse, iv 5 mg/kg) was 0.81 L/kg and the clearance ([5]; C57/BL6, in vivo, mouse, iv 5 mg/kg, read-out: CLtotal) was 1.3 mL/min/kg. It also gave a half-life ([5]; C57/BL6, in vivo, mouse, iv 5 mg/kg, read-out: apparent t1/2 (converted)) of 7.3 h, a Tmax ([5]; C57/BL6, in vivo, mouse, oral 20 mg/kg) of 3 h and a Cmax ([5]; C57/BL6, in vivo, mouse, oral 20 mg/kg, whole blood) of 5.98 µM. For the same compound, the bioavailability ([5]; C57/BL6, mouse, in vivo, read-out: bioavailability) was 18%, the “AUC0–∞” value ([5]; mouse, iv 5 mg/kg) was 8589 min·μmol·L^–1 and the “AUC0–∞” value ([5]; mouse, oral 20 mg/kg) was 7249 min·μmol·L^–1. For the same compound, the bioavailability ([5]; mouse) was 18.4%, the “Metabolic Stability H (% Rem.)” value [1] was 97 % Rem and the “Metabolic Stability M (% Rem.)” value [1] was 92 % Rem. The “Metabolic Stability R (% Rem.)” value [1] was 100 % Rem, the MIC90 [2] was less than 0.244 µM and the MIC90 [2, 6] was less than 0.244 µM. It also gave an IC50 [3] greater than 100 µM and a solubility [4] of less than 5 µM.
For `Nc1nc2ccc(-c3cccc(S(=O)(=O)C4CC4)c3)cc2c(=O)n1-c1ccc(C(F)(F)F)cc1` [compound 8], the “Metabolic Stability H (% Rem.)” value [1] was 85 % Rem, the “Metabolic Stability M (% Rem.)” value [1] was 97 % Rem and the “Metabolic Stability R (% Rem.)” value [1] was 98 % Rem. The MIC90 [2, 6] was 2.35 µM (≈ 1.14 µg/mL), the IC50 [3] was 0.021 µM and the solubility [4] was 66 µM (≈ 32 µg/mL).
For `Nc1nc2ccc(-c3cncnc3)cc2c(=O)n1-c1ccc(C(F)(F)F)cc1` [compound 21], the “Metabolic Stability H (% Rem.)” value [1] was 94/-/- % Rem, the MIC90 [2, 6] was 10 µM (≈ 3.83 µg/mL) and the IC50 [3] was greater than 100 µM. For the same compound, the solubility [4] was 40 µM (≈ 15.3 µg/mL).
